Data as given in patent US10434083B2, “Transmammary delivery of cyclooxygenase-2 inhibitors for analgesia in neonates” (Iowa State University Research Foundation, Inc., priority 2018, dated 2019).
Where two headings read alike, the source gives them in different places.

How the values were obtained:
Format in all cases: in vivo, swine
[1] = Piglet average daily gain (ADG) from processing to weaning; settings: piglets; for Average Daily Gain (ADG) Mean Difference: least squares means
Protocol: On day 21 post-drug injection in the sow, the body weight of each sow and piglet was recorded before weaning to calculate average daily weight gain.
Plasma cortisol concentrations and ADG were analyzed using a nonlinear mixed-effects analysis incorporating both fixed effects and random effects (PROC GLMMIX; SAS university edition v9.04.01, SAS Institute, Cary, N.C.). The population cortisol concentrations best fit a lognormal model. Time, treatment and their interaction were designated as fixed effects in the model with piglet nested in sow designated as a random effect. The effect of gender across treatments was examined using ANOVA to confirm that data from female piglets could be pooled to serve as a procedural control. Sow parity was also included as a covariate in the model. Where there was evidence of a treatment-by-time interaction (P<0.1), simple effect comparisons of LS means were conducted using the Tukey-Kramer adjustment for multiple comparisons. ADG outcomes best fit a Gaussian distribution. The effect of gender across treatments was also examined by ANOVA to clarify the effect of drug exposure from the effect of processing. For both outcomes, statistical significance was set a priori at P<0.05.
Eight piglets died between processing and weaning. Average daily gain in body weight (ADG) of the surviving piglets over the 21 d from processing to weaning was calculated by subtracting the body weight at processing from the body weight at weaning and dividing the result by the days from processing to weaning (FIG. 12 and FIG. 13). […] Specifically, ADG increased with the increasing doses of firocoxib administered to the lactating sows via injection.

[2] = Pharmacokinetics of firocoxib in a single sow after IM injection (Example 1); settings: 1.5 mg/kg IM; for AUC: im, 1.5 mg/kg
Text: The objective of this study was to characterize the pharmacokinetic profile and transmammary delivery of firocoxib in a single sow and her litter when administered via injection to provide analgesia to piglets via the milk prior to routine piglet processing procedures. One crossbred sow and her litter sourced from the MVS-Klitz Farm was used for this project. The sow was in good health, and had not received treatment with anti-inflammatory drugs by any route. The study sow was housed in a farrowing crate. Feed and water was provided ad libitum throughout the study period. No additional medications were provided. Study animals were identified using unique duplicate ear tags and/or tattoos.
There was one treatment group in this study (refer to Table 1). The sow was given firocoxib (20 mg/mL) on Study Day 0. Firocoxib was administered via injection five (+/−2) days post-farrow, at 1.5 mg/kg IM.
(§1) Blood (sodium heparin tubes) was collected from the sow via jugular venipuncture at the following time points after drug administration via injection to the sow: 0, 1, 2, 3, 4, 6, 8, 10, 12, 24, 36 and 48 hours. The piglets had blood collected via jugular venipuncture at the following timepoints following sow drug administration via injection:
Approximately 10 mL of blood was collected from the sow at each time point, and approximately 5 mL was collected from each piglet at each time point. Following blood collection at the 48 hour time point, the sow and piglets was euthanized and disposed of per study site procedures.
Samples were stored on ice after collection and before processing. Blood samples were centrifuged for 10 minutes at 1,500 g. Collected plasma was placed in duplicate cryovials with a single-use transfer pipette and frozen at −70° C. until analysis. Cryovials were labeled with the time point and collection date.
Plasma concentrations of firocoxib were measured with high-pressure liquid chromatography-tandem mass spectrometry (Shimadzu Prominence, Shimadzu Scientific Instruments, Columbia, Md., USA). Briefly, frozen samples or standards were thawed at room temperature and rigorously vortexed once completely thawed. A 200 μL plasma sample was added to 400 μL 5% Acetic Acid and the internal standard celecoxib (20 μg/mL). The entire diluted sample was added to a 3 mL solid phase extraction tubes (OASIS) which was conditioned prior with methanol (2 ml) and equilibrated with water (2 ml). The sample was then gravity filtered through the solid phase extraction tubes and subsequently washed with 1 ml 5% acetic acid, followed by 1 ml solution of 25% methanol/75% water. Using 2×0.75 mL acetonitrile, firocoxib was eluted into a glass tube and an additional internal standard piroxicam (10 ng/μL) was added. Samples were evaporated to dryness at 48° C. under a stream of nitrogen, reconstituted with […] 25% in water and pipetted into an injection vial for LC-MS/MS analysis with the injection volume set to 10 μL. The mobile phase consisted of acetonitrile and formic acid (0.1%) at a flow rate of 0.4 mL/min. The concentration of this mobile phase began at 85% formic acid (0.1%) from 0 to 0.5 minutes with a linear gradient to 50% formic acid (0.1%) at 2.5 minutes, which was maintained until 3 minutes, followed by a linear gradient to 85% formic acid (0.1%) at 4 minutes with a total run time of 5 minutes.
(§2) The standard curve of firocoxib concentration determined using porcine plasma was linear from 0.020 to 5.0 μg/mL and was accepted when the correlation coefficient exceeded 0.99 and measured values were within 15% of the actual values. The lower limit of quantification, defined as the lowest concentration on a linear standard curve with predicted concentrations within 15% of the actual concentration, was 0.020 μg/mL.
Firocoxib time concentration data was analyzed using a commercially available computer software program (Kinetica, Thermo Scientific).

[3] = Plasma firocoxib in nursing piglets after transmammary delivery (Example 1); settings: piglets nursing sow given 1.5 mg/kg IM; from 2 hours post-exposure to end of study (48 h)
Protocol: as §1
Piglets 1-3 was bled at times 0, 3, 8 and 24 hours
Piglets 4-6 was bled at times 1, 4, 10 and 36 hours
Piglets 7-9 was bled at times 2, 6, 12 and 48 hours.
Approximately 10 mL of blood was collected from the sow at each time point, and approximately 5 mL was collected from each piglet at each time point. Following blood collection at the 48 hour time point, the sow and piglets was euthanized and disposed of per study site procedures. […]
Plasma concentrations of firocoxib were measured with high-pressure liquid chromatography-tandem mass spectrometry (Shimadzu Prominence, Shimadzu Scientific Instruments, Columbia, Md., USA). […]
as §2

[4] = female, crossbred, swine, plasma

## CC1(C)OC(=O)C(OCC2CC2)=C1c1ccc(S(C)(=O)=O)cc1 [firocoxib]
[1]; 21 d after processing, sow doses 0.5-2.0 mg/kg IM
  average daily gain, dose dependence: dose-dependent increase in average daily gain
[1]; sow dose 0.5 mg/kg vs 1.0 mg/kg
  Average Daily Gain (ADG) Mean Difference: 2.56 g
[1]; sow dose 0.5 mg/kg vs 1.5 mg/kg
  Average Daily Gain (ADG) Mean Difference: -17.98 g
[1]; sow dose 0.5 mg/kg vs 2.0 mg/kg
  Average Daily Gain (ADG) Mean Difference: -39.01 g
[1]; sow dose 1.0 mg/kg vs 1.5 mg/kg
  Average Daily Gain (ADG) Mean Difference: -20.54 g
[1]; sow dose 1.0 mg/kg vs 2.0 mg/kg
  Average Daily Gain (ADG) Mean Difference: -41.57 g
[1]; sow dose 1.5 mg/kg vs 2.0 mg/kg
  Average Daily Gain (ADG) Mean Difference: -21.03 g
[1]; sow dose 2.0 mg/kg vs 0.5 mg/kg (P=0.0076) or 1.0 mg/kg (P=0.0047)
  weight gain (ADG) over 21 d from processing to weaning: gained more weight
[2]
  % AUCextra: 33.02%
  AUMCextra: 322.22 μg/mL * (h)^2
  AUMClast: 155.18 μg/mL * (h)^2
  AUMtot: 477.39 μg/mL * (h)^2
  Clearance: 32.45 L/h
  Vss: 1390.95 L
  Vz: 1285.61 L
[2]; female, crossbred, pig, plasma
  AUC(0-t): 7460 ng·h/mL
  MRT: 42.9 h
  MRT last: 20.8 h
  half-life: 27.5 h
[2]; female, crossbred, pig, plasma, read-out: AUCextra
  AUC: 3680 ng·h/mL
[2]; female, crossbred, pig, plasma, read-out: AUCtot
  AUC: 11100 ng·h/mL
[2]; [4]
  Cmax: 287 ng/mL
  Tmax: 6 h
[3]
  plasma drug concentrations in piglets: above 10 ng/mL
